Data taken from patent US20210369677A1, “SMALL MOLECULE ACTIVATORS OF POLYCYSTIN-2 (PKD2) AND USES THEREOF” (Northwestern University, priority 2020, published 2021).

Target: T1, polycystin-2 (Homo sapiens, UniProt Q13563, C437S/C632S)
T1 construct: expressed in transfected cells
T1 sequence (Q13563 1-968 C437S/C632S): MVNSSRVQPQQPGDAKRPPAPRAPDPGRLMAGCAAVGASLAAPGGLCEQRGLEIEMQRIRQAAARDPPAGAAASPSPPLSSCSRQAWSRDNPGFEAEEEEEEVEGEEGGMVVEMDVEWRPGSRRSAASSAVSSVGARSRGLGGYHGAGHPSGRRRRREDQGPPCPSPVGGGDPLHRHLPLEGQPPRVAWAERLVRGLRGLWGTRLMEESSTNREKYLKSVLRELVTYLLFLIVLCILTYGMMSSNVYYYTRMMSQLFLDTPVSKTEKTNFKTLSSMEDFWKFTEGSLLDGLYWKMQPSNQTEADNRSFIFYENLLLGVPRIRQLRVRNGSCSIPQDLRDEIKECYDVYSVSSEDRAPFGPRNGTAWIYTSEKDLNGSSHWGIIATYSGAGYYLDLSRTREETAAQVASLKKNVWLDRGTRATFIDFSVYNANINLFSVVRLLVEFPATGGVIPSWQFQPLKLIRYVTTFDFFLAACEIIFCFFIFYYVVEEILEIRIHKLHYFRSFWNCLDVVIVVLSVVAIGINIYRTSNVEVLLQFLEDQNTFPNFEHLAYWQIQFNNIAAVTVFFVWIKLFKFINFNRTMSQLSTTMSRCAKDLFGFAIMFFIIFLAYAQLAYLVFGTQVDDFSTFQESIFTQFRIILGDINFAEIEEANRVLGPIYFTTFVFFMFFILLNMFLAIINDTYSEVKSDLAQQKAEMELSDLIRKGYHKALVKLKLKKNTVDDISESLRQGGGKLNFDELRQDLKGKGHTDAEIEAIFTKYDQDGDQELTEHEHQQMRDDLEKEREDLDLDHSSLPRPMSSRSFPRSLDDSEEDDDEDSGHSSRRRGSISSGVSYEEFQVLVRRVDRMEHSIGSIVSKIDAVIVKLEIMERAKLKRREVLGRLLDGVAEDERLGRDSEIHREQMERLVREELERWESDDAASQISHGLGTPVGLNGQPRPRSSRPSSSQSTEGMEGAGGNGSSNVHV
Format: cell-based
Details: C437S:C632S double mutant
Source text: Generation of HEK PKD2^Null cells line and the stable expression PKD2 variants. To generate the HEK PKD2^Null cell lines, we used a CRISPR/Cas9 gene editing kit available from Addgene (kit 1000000055). HEK 293 cells were electro-transfected with sgRNAs (caccg[…] and aaac[…]c) with the All-in-one Cas9 plasmid. […] Cells generated from single cell clones were selected after 4 weeks of expansion in a 96-wells plate. […] To generate the WT and variant PKD2 GFP or mCherry C-terminally tagged variant cell lines, the hPKD gene was subcloned into lentiviral pLVX-mcherry-N1 (Clontech) or pLVX-GFP-N1 (Clontech) vector using the Gibson assembly method. A linker encoding for six glycine residues was added between the PKD2 gene and the C-terminal tags, and missense variants were generated using standard, site-directed mutagenesis. The third-generation lentiviral packaging plasmids used for stable expression contained: pMDLg/pRRE (Addgene), […] pRSV-Rev (Addgene), and envelope expressing plasmid pMD2.G (Addgene). LentiX-293T cells (Takara) were transfected with polyethylineimine (Polysciences) at a 4:1:1:1 ratio of the transgene and viral packaging constructs. Supernatants were collected 48 and 72 hours post transfection and filtered through a 0.45 μm syringe filter. Lentiviral supernatant was concentrated 100 times using 1 volume of PEG-it (System Biosciences) virus precipitation solution and 4 volume of lentivirus-containing supernatant. The PEG-it and supernatant mixture were kept at 4 degrees for 24 hours and centrifuged at 1500 rpm for 30 minutes. The pellet containing lentivirus was resuspended with 1/100th volume of PBS of the original supernatant volume. HEK cells were infected with the lentivirus supernatant; PKD2-GFP or PKD2-mCherry expression was selected using culture media containing puromycin (2 μg/ml) for 30 to 90 days. Cells were then fluorescence-activated cell sorted (BD FacsMelody) at 5000 to 10,000 counts per minute to enrich for the transgene expression. Stable cell lines were cultured in Dulbecco's modified essential medium (DMEM) supplemented with 10% fetal bovine serum (FBS) and 100 units/ml penicillin, 100 units/ml streptomycin and 1 μg/ml puromycin selection antibiotic.
Electrophysiology. Ciliary ion currents were recorded using borosilicate glass electrodes polished to resistances of 14-22 MΩ using the cilium patch method previously described^32. Whole cell electrodes used to measure poly cystin-2L1 currents were fire polished to 1.5-4 MΩ resistances. Unless otherwise stated, whole cilia ionic currents were recorded in symmetrical [Na^+]. The pipette standard internal solution contained (in mM): 90 NaMES, 10 NaCl, 10 HEPES, 10 Na4-BAPTA (Glycine, N, N′-[1,2-ethanediylbis(oxy-2,1-phenylene)]bis[N-(carboxymethyl)]-,tetrasodium); pH was adjusted to 7.3 using NaOH. Standard bath solution contained 140 NaCl, 10 HEPES, 1.8 CaCl2); pH 7.4. All solutions were osmotically balanced to 295 (±6) mOsm with mannitol. Extracellular solutions containing TCEP and GSH were used within six hours of formulation. Data were collected using an Axopatch 200B patch clamp amplifier, Digidata 1440A, and pClamp 10 software. Whole-cilium and excised patch currents were digitized at 25 kHz and low-pass filtered at 10 kHz. In the whole cilium configuration, the holding potential was −60 mV and then depolarized using a 400 ms voltage ramp from −100 mV to 100 mV. The whole cell recordings of polycystin-2L1 currents were either activated by the same ramp protocol or by 100 ms depolarizations to 100 mV from a −100 mV holding potential.

Row | Compound | Effect on C437S:C632S double mutant channel cilia current
1 | N[C@@H](CCC(=O)N[C@@H](CS)C(=O)NCC(=O)O)C(=O)O [GSH, reduced glutathione] | retained its sensitivity
2 | O=C(O)CCP(CCC(=O)O)CCC(=O)O [TCEP, tris-2-carboxyethyl phosphine] | retained its sensitivity
